Measurements published in patent US12435080B2, “sGC stimulators” (Tisento Therapeutics Inc., priority 2016, dated 2025).
Values joined by “and” are separate entries in the source; they are usually repeats but may differ in a detail not shown here. Equal entries are not always repeated. Where two headings read alike, the source gives them in different places.

Biological target: T1, sGC enzyme (Homo sapiens, UniProt Q02108+Q02153)
T1 construct: incorporated into these cells detect cGMP formed by the compounds stimulating the sGC enzyme; host or cells: HEK293 cells stably expressing GloSensor 40F cGMP biosensor
T1 sequence (Q02153 1-619): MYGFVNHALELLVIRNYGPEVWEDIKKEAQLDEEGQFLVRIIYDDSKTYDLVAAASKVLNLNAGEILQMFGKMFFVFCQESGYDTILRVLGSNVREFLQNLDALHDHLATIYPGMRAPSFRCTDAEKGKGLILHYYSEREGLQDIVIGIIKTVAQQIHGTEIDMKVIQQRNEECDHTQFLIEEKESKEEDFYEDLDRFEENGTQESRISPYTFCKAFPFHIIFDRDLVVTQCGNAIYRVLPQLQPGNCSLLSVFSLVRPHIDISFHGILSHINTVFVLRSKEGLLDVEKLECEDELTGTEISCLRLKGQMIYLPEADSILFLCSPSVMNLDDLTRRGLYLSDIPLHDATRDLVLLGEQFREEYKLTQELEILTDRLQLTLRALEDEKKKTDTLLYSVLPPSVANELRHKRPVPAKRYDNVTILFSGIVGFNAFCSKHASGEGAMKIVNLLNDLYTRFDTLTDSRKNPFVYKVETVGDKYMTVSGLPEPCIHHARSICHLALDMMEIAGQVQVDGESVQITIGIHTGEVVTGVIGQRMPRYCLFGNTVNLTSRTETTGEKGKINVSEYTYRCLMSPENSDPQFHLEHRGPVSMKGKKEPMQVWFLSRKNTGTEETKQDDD
T1 sequence (Q02108 1-690): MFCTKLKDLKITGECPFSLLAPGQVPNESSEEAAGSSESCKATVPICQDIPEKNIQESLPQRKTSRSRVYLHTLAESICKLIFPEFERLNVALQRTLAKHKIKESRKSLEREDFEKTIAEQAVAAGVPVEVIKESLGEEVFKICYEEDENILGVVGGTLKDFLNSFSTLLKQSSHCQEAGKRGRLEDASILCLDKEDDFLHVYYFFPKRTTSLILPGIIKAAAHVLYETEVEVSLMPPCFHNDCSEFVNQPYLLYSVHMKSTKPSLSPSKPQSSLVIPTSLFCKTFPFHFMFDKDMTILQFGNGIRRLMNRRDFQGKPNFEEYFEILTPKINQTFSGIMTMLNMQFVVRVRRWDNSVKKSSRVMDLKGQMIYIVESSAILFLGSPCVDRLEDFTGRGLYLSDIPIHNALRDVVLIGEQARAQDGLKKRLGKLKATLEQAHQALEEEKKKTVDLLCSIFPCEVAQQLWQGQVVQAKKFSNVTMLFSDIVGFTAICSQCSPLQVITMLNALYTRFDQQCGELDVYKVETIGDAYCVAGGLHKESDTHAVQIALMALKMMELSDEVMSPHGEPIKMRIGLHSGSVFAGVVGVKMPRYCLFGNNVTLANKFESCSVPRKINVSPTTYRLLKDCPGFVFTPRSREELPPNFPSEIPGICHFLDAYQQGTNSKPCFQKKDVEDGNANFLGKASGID
Assay: cGMP GloSensor cell-based assay, 384-well format
Conditions: 10 μM DETA-NONOate, normalized to 30 μM Compound Y
From the text: Human embryonic kidney cells (HEK293) cells expressing GloSensor™ 40F cGMP (Part No: CS182801, Promega) were used to evaluate the activity of test compounds. The luminescent biosensors (engineered luciferase) that were incorporated into these cells detect cGMP formed by the compounds stimulating the sGC enzyme and emit luminescence.
cGMP GloSensor cells were maintained in Dulbecco's Modification of Eagle's Medium (DMEM) supplemented with fetal bovine serum (FBS, 10% final) and hygromycine (200 ug/ml). […] Cells were incubated overnight at 37° C. in a humidified chamber with 5% CO2. The next day, medium was removed and cells were replaced with 40 ul/well of GloSensor™, 2 mM (Promega Cat No E1291). Cells were treated for 90 minutes at 25° C. to allow the substrate to equilibrate in the cells. […] For endpoint SAR screening, data were collected after 55 min incubation at room temperature.
Data were fit using a 4-parameter fit (log(agonist) vs. response—variable slope) using GraphPad Prism Software v.5. n=2 for all compounds. […] Compounds failing to elicit a minimum response of 50% are reported as >30 μM or ND.

[1] = HEK293 cells expressing GloSensor 40F cGMP, compounds in Table IB, read-out: Glo-sensor Abs EC50
[2] = HEK293 cells expressing GloSensor 40F cGMP, compounds in Table IA, read-out: Glo-sensor AbsEC50

SMILES: Fc1ccccc1Cc1nc(-c2nc(C(F)(F)F)n[nH]2)n2ccncc12 [Compound I-44, 1-(2-Fluorobenzyl)-3-(3-(trifluoromethyl)-1H-1,2,4-triazol-5-yl)imidazo[1,5-a]pyrazine]
- EC50 [1]: > 1 µM

SMILES: C=C(C)c1n[nH]c(-c2nn(Cc3ccccc3F)c3ncccc23)n1 [Compound I-55]
- EC50 [2]: 0.1 to 1 µM

SMILES: Fc1ccccc1Cn1nc(-c2nc(NCCC(F)(F)F)n[nH]2)c2cccnc21 [Compound I-89]
- EC50 [2]: < 0.1 µM

SMILES: CC1(c2n[nH]c(-c3nn(Cc4ccccc4F)c4ncccc34)n2)COC1 [Compound I-70, 1-(2-fluorobenzyl)-3-(3-(3-methyloxetan-3-yl)-1H-1,2,4-triazol-5-yl)-1H-pyrazolo[3,4-b]pyridine]
- EC50 [2]: 0.1 to 1 µM and > 1 µM

SMILES: O=C(CC(F)(F)F)Nc1n[nH]c(-c2nn(Cc3ccccc3F)c3ncccc23)n1 [Compound I-126]
- EC50 [2]: > 1 µM

SMILES: Fc1ccccc1Cn1nc(-c2nc(C(F)(F)Cl)n[nH]2)c2cccnc21 [Compound I-65, 3-(3-(Chlorodifluoromethyl)-1H-1,2,4-triazol-5-yl)-1-(2-fluorobenzyl)-1H-pyrazolo[3,4-b]pyridine]
- EC50 [2]: < 0.1 µM

SMILES: Fc1ccccc1Cn1nc(-c2nc(C3CC(F)(F)C3)n[nH]2)c2cccnc21 [Compound I-77, 3-(3-(3,3-Difluorocyclobutyl)-1H-1,2,4-triazol-5-yl)-1-(2-fluorobenzyl)-1H-pyrazolo[3,4-b]pyridine]
- EC50 [2]: 0.1 to 1 µM

SMILES: Fc1ccccc1Cn1nc(-c2nc(C(F)(F)F)n[nH]2)c2nccnc21 [Compound I-98, 1-(2-Fluorobenzyl)-3-(3-(trifluoromethyl)-1H-1,2,4-triazol-5-yl)-1H-pyrazolo[3,4-b]pyrazine]
- EC50 [2]: > 1 µM

SMILES: Cc1n[nH]c(-c2nn(Cc3ccccc3F)c3ncccc23)n1 [Compound I-60, 1-(2-Fluorobenzyl)-3-(3-methyl-1H-1,2,4-triazol-5-yl)-1H-pyrazolo[3,4-b]pyridine]
- EC50 [2]: < 0.1 µM

SMILES: Cc1ccc(Cn2nc(-c3nc(C(F)(F)F)n[nH]3)c3cccnc32)cc1 [Compound I-54, 1-(4-Methylbenzyl)-3-(3-(trifluoromethyl)-1H-1,2,4-triazol-5-yl)-1H-pyrazolo[3,4-b]pyridine]
- EC50 [2]: < 0.1 µM

SMILES: Cc1ncc(Cn2nc(-c3nc(C(F)(F)F)n[nH]3)c3ccc(F)cc32)cn1 [Compound I-61, 6-Fluoro-1-((2-methylpyrimidin-5-yl)methyl)-3-(3-(trifluoromethyl)-1H-1,2,4-triazol-5-yl)-1H-indazole]
- EC50 [2]: < 0.1 µM

SMILES: CC(=O)Nc1n[nH]c(-c2nn(Cc3ccccc3F)c3ncccc23)n1 [Compound I-103]
- EC50 [2]: 0.1 to 1 µM

SMILES: Fc1ccc(Cn2nc(-c3nc(C(F)(F)F)n[nH]3)c3cccnc32)cc1 [Compound I-53, 1-(4-Fluorobenzyl)-3-(3-(trifluoromethyl)-1H-1,2,4-triazol-5-yl)-1H-pyrazolo[3,4-b]pyridine]
- EC50 [2]: < 0.1 µM

SMILES: NCc1n[nH]c(-c2nn(Cc3ccccc3F)c3ncccc23)n1 [Compound I-115, (5-(1-(2-fluorobenzyl)-1H-pyrazolo[3,4-b]pyridin-3-yl)-1H-1,2,4-triazol-3-yl)methanamine]
- EC50 [2]: 0.1 to 1 µM

SMILES: Fc1cccn2c(-c3nc(C(F)(F)F)n[nH]3)nc(Cc3cncnc3)c12 [Compound I-15, 8-Fluoro-1-(pyrimidin-5-ylmethyl)-3-(3-(trifluoromethyl)-1H-1,2,4-triazol-5-yl)imidazo[1,5-a]pyridine]
- EC50 [1]: < 0.1 µM

SMILES: Fc1ccccc1Cn1nc(-c2nc(C3(c4ccccc4)CC3)n[nH]2)c2cccnc21 [Compound I-81, 1-(2-Fluorobenzyl)-3-(3-(1-phenylcyclopropyl)-1H-1,2,4-triazol-5-yl)-1H-pyrazolo[3,4-b]pyridine]
- EC50 [2]: > 1 µM

SMILES: Cc1ccc2c(-c3nc(C(F)(F)F)n[nH]3)nn(Cc3ccccc3F)c2n1 [Compound I-50, 1-(2-Fluorobenzyl)-6-methyl-3-(3-(trifluoromethyl)-1H-1,2,4-triazol-5-yl)-1H-pyrazolo[3,4-b]pyridine]
- EC50 [2]: < 0.1 µM

SMILES: FC(F)(F)c1n[nH]c(-c2nc(Cc3cncnc3)c3ncccn23)n1 [Compound I-17]
- EC50 [1]: < 0.1 µM

SMILES: FC(F)(F)c1n[nH]c(-n2nc(Cc3ccccc3)c3ncccc32)n1 [Compound I-128, 3-Benzyl-1-(3-(trifluoromethyl)-1H-1,2,4-triazol-5-yl)-1H-pyrazolo[4,3-b]pyridine]
- EC50 [2]: 0.1 to 1 µM

SMILES: FC(F)(F)CCn1nc(-c2nc(C(F)(F)F)n[nH]2)c2cccnc21 [Compound I-7, 3-(3-(Trifluoromethyl)-1H-1,2,4-triazol-5-yl)-1-(3,3,3-trifluoropropyl)-1H-pyrazolo[3,4-b]pyridine]
- EC50 [2]: > 1 µM

SMILES: O=C1CCC(=O)N1Cc1n[nH]c(-c2nn(Cc3ccccc3F)c3ncccc23)n1 [Compound I-125, 1-((5-(1-(2-fluorobenzyl)-1H-pyrazolo[3,4-b]pyridin-3-yl)-1H-1,2,4-triazol-3-yl)methyl)pyrrolidine-2,5-dione]
- EC50 [2]: 0.1 to 1 µM

SMILES: CC(C)(C)OC(=O)NC1(c2n[nH]c(-c3nn(Cc4ccccc4F)c4ncccc34)n2)COC1 [Compound I-76, tert-Butyl (3-(5-(1-(2-fluorobenzyl)-1H-pyrazolo[3,4-b]pyridin-3-yl)-1H-1,2,4-triazol-3-yl)oxetan-3-yl)carbamate]
- EC50 [2]: 0.1 to 1 µM

SMILES: [2H]C([2H])([2H])c1n[nH]c(-c2nn(Cc3ccccc3F)c3ncccc23)n1 [Compound I-91, 1-(2-Fluorobenzyl)-3-(3-(methyl-d3)-1H-1,2,4-triazol-5-yl)-1H-pyrazolo[3,4-b]pyridine]
- EC50 [2]: < 0.1 µM

SMILES: Cc1ncc(Cn2nc(-c3nc(C)n[nH]3)c3cccnc32)cn1 [Compound I-113, 3-(3-Methyl-1H-1,2,4-triazol-5-yl)-1-((2-methylpyrimidin-5yl)methyl)-1H-pyrazolo[3,4-b]pyridine]
- EC50 [2]: < 0.1 µM

SMILES: Fc1ccccc1Cn1nc(-c2nc(Cl)n[nH]2)c2cccnc21 [Compound I-47, 3-(3-Chloro-1H-1,2,4-triazol-5-yl)-1-(2-fluorobenzyl)-1H-pyrazolo[3,4-b]pyridine]
- EC50 [2]: < 0.1 µM

SMILES: Cc1ncc(Cc2nc(-c3nc(C(F)(F)F)n[nH]3)n3cc(Cl)cc(F)c23)cn1 [Compound I-27, 6-Chloro-8-fluoro-1-((2-methylpyrimidin-5-yl)methyl)-3-(3-(trifluoromethyl)-1H-1,2,4-triazol-5-yl)imidazo[1,5-a]pyridine]
- EC50 [1]: > 1 µM

SMILES: Fc1ccccc1Cn1nc(-c2ncn[nH]2)c2cccnc21 [Compound I-25]
- EC50 (Glo-sensor AbsEC50, HEK293 cells expressing GloSensor 40F cGMP, compounds in Table IA): 0.1 to 1 µM

SMILES: Cc1ncc(Cn2nc(-c3nc(C(F)(F)F)n[nH]3)c3cccc(Cl)c32)cn1 [Compound I-46, 7-Chloro-1-((2-methylpyrimidin-5-yl)methyl)-3-(3-(trifluoromethyl)-1H-1,2,4-triazol-5-yl)-1H-indazole]
- EC50 [2]: 0.1 to 1 µM

SMILES: Fc1ccccc1Cn1nc(-c2nc(CC(F)(F)F)n[nH]2)c2cccnc21 [Compound I-26, 1-(2-Fluorobenzyl)-3-(3-(2,2,2-trifluoroethyl)-1H-1,2,4-triazol-5-yl)-1H-pyrazolo[3,4-b]pyridine]
- EC50 [2]: < 0.1 µM
